One assay addresses JAK2 (Homo sapiens (Human), UniProt O60674). Briefly: Jak Biochemical HTRF Assay, JAK2. The settings on record: HTRF biochemical assay, GST-tagged catalytic domain; top concentration tested […]. The text has this:
(§1) Jak Biochemical HTRF Assay Protocol
(§2) Subsequent reagent additions employed an Agilent Bravo.

In the next assay the target is JAK1 (Homo sapiens (Human), UniProt P23458). Briefly: Jak Biochemical HTRF Assay, JAK1. Particulars: HTRF biochemical assay, GST-tagged catalytic domain; top concentration tested […]; read-out: JAK1 IC50.
Chain of JAK1 (P23458 875-1153): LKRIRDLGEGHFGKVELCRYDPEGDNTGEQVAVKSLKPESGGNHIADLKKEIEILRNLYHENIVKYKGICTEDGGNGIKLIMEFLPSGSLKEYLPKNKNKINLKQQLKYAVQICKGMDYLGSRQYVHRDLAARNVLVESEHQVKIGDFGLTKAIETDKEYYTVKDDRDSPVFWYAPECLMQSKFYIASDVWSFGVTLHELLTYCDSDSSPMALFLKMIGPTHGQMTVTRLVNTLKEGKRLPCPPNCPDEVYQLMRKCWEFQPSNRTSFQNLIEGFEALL
Description: as §1, §2
(Time-resolved FRET reads energy transfer from a long-lived donor to a nearby acceptor.)

The IC50 is the point on the concentration scale where inhibition reaches its midpoint.

Chain of JAK2 (O60674 849-1124): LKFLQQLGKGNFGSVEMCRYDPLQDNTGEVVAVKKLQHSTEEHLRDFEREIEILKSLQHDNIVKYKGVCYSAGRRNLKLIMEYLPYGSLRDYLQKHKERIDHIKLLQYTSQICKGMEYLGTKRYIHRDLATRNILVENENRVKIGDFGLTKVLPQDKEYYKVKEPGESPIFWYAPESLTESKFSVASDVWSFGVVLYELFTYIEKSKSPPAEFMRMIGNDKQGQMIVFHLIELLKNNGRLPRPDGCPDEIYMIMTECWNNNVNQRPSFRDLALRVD

In the case of `CC(C)(C)OC(=O)N1CCC(CC#N)(n2cc(C(N)=O)c(Nc3ccc(F)nc3)n2)CC1` [Example 12-5, tert-butyl 4-{4-carbamoyl-3-[(6-fluoropyridin-3-yl)amino]-1H-pyrazol-1-yl}-4-(cyanomethyl)piperidine-1-carboxylate], the concentration for half-maximal inhibition (IC50) stood at 7 nM against JAK2 and 0.8 nM at JAK1.

For the compound `N#CCC1(n2cc(C(N)=O)c(Nc3ccnc(F)c3)n2)CCN(Cc2cccc(=O)[nH]2)CC1` [Example 22-67, 1-{4-(cyanomethyl)-1-[(6-oxo-1,6-dihydropyridin-2-yl)methyl]piperidin-4-yl}-3-[(2-fluoropyridin-4-yl)amino]-1H-pyrazole-4-carboxamide], the IC50 against JAK2 is 68 nM; on JAK1, 1 nM.

Regarding `COc1ccccc1N1CCC(CC#N)(n2cc(C(N)=O)c(Nc3ccc(F)cc3)n2)CC1` [Example 3-41, 1-[4-(cyanomethyl)-1-(2-methoxyphenyl)piperidin-4-yl]-3-[(4-fluorophenyl)amino]-1H-pyrazole-4-carboxamide], the IC50 at JAK2 was above 1500 nM; at JAK1, 213 nM.

As for `Cn1ccc(CN2CCC(CC#N)(n3cc(C(N)=O)c(Nc4ccnc(F)c4)n3)CC2)n1` [Example 22-30, 1-{4-(cyanomethyl)-1-[(1-methyl-1H-pyrazol-3-yl)methyl]piperidin-4-yl}-3-[(2-fluoropyridin-4-yl)amino]-1H-pyrazole-4-carboxamide], the 50% inhibitory concentration (IC50) at JAK2 was above 1500 nM; at JAK1, 86 nM.

As for `C[C@@H](O)CC(=O)N1CCC(CC#N)(n2cc(C(N)=O)c(Nc3ccnc(F)c3)n2)CC1` [Example 34-62, 1-{4-(cyanomethyl)-1-[(3R)-3-hydroxybutanoyl]piperidin-4-yl}-3-[(2-fluoropyridin-4-yl)amino]-1H-pyrazole-4-carboxamide], the IC50 on JAK2 worked out at 47 nM; on JAK1, 1 nM.

Turning to `N#CCC1(n2cc(C(N)=O)c(Nc3ccnc(F)c3)n2)CCN(Cc2cccc(F)c2)CC1` [Example 22-10, 1-[4-(cyanomethyl)-1-(3-fluorobenzyl)piperidin-4-yl]-3-[(2-fluoropyridin-4-yl)amino]-1H-pyrazole-4-carboxamide], the values for the IC50 on JAK2 and at JAK1 were 3 nM and 0.07 nM, respectively.

Take `N#CCC1(n2cc(C(N)=O)c(Nc3ccc(F)cc3)n2)CCN(C(=O)OCC2CC2(F)F)CC1` (stereo not drawn) [Example 30-6, (2,2-difluorocyclopropyl)methyl 4-(4-carbamoyl-3-(4-fluorophenylamino)-1H-pyrazol-1-yl)-4-(cyanomethyl)piperidine-1-carboxylate]: the IC50 was determined as 38 nM on JAK2 and 0.9 nM at JAK1.

Turning to `Cc1ncccc1N1CCC(CC#N)(n2cc(C(N)=O)c(Nc3ccc(F)cc3)n2)CC1` [Example 3-29, 1-[4-(cyanomethyl)-1-(2-methylpyridin-3-yl)piperidin-4-yl]-3-[(4-fluorophenyl)amino]-1H-pyrazole-4-carboxamide], the IC50 against JAK2 worked out at 209 nM; at JAK1, 9 nM.

`COC(=O)N1CCC(CC#N)(n2cc(C(N)=O)c(Nc3ccc(S(=O)(=O)C(F)(F)F)cc3)n2)CC1` [Example 27-1, Methyl 4-(4-carbamoyl-3-(4-(trifluoromethylsulfonyl)phenylamino)-1H-pyrazol-1-yl)-4-(cyanomethyl)piperidine-1-carboxylate]: the figures for the IC50 against JAK2 and on JAK1 were 2 nM and 0.3 nM, respectively.

For the compound `N#CCC1(n2cc(C(N)=O)c(Nc3ccc(F)cc3)n2)CCN(c2ccnc3ccccc23)CC1` [Example 3-3, 1-[4-(cyanomethyl)-1-quinolin-4-ylpiperidin-4-yl]-3-[(4-fluorophenyl)amino]-1H-pyrazole-4-carboxamide], the IC50 against JAK2 came to 488 nM; at JAK1, 5 nM.

For `N#CCC1(n2cc(C(N)=O)c(Nc3ccnc(F)c3)n2)CCC(Nc2ccccc2Cl)CC1` (stereo not drawn) [Example 40-25, Cis or trans 1-{4-[(2-chlorophenyl)amino]-1-(cyanomethyl)cyclohexyl}-3-[(2-fluoropyridin-4-yl)amino]-1H-pyrazole-4-carboxamide], the results for the IC50 against JAK2 and on JAK1 were 940 nM and 63 nM, respectively.

Turning to `Cc1ccc(-c2cccc(Nc3nn(C4(CC#N)CCN(C(=O)OC(C)(C)C)CC4)cc3C(N)=O)c2)cc1` [Example 15-6, tert-butyl 4-{4-carbamoyl-3-[(4′-methylbiphenyl-3-yl)amino]-1H-pyrazol-1-yl}-4-(cyanomethyl)piperidine-1-carboxylate], the values for the IC50 against JAK2 and at JAK1 were 1480 nM and 85 nM, respectively.

In the case of `CC(C)(C)OC(=O)N1CCC(CC#N)(n2cc(C(N)=O)c(Nc3ccc(F)cc3)n2)CC1` [Example 9-3, tert-butyl 4-{4-carbamoyl-3-[(4-fluorophenyl)amino]-1H-pyrazol-1-yl}-4-(cyanomethyl)piperidine-1-carboxylate], the IC50 on JAK2 was 21 nM; at JAK1, 0.8 nM.

With `CCOC(=O)COC(=O)N1CC(CC#N)(n2cc(C(N)=O)c(Nc3ccccc3)n2)C1` [Example 30-60, 2-ethoxy-2-oxoethyl 3-[4-carbamoyl-3-(phenylamino)-1H-pyrazol-1-yl]-3-(cyanomethyl)azetidine-1-carboxylate], the IC50 against JAK2 came to 484 nM; on JAK1, 39 nM.

Consider `N#CCC1(n2cc(C(N)=O)c(Nc3ccnc(F)c3)n2)CCC(NCC2CCCCC2)CC1` (stereo not drawn) [Example 41-8, Trans 1-{1-(cyanomethyl)-4-[(cyclohexylmethyl)amino]cyclohexyl}-3-[(2-fluoropyridin-4-yl)amino]-1H-pyrazole-4-carboxamide], for which the values for the IC50 against JAK2 and at JAK1 were 153 nM and 0.8 nM, respectively.

Consider `CC(C)c1ccc(CN2CCC(CC#N)(n3cc(C(N)=O)c(Nc4ccccc4)n3)CC2)cc1` [Example 21-24, 1-{4-(cyanomethyl)-1-[4-(1-methylethyl)benzyl]piperidin-4-yl}-3-(phenylamino)-1H-pyrazole-4-carboxamide], for which the IC50 against JAK2 came out at 1050 nM; on JAK1, 120 nM.

In the case of `N#CCC1(n2cc(C(N)=O)c(Nc3ccc(F)cc3)n2)CCC(N2CCC2)CC1` (stereo not drawn) [Example 40-80, Cis or trans 1-[4-azetidin-1-yl-1-(cyanomethyl)cyclohexyl]-3-[(4-fluorophenyl)amino]-1H-pyrazole-4-carboxamide], the IC50 was determined as 325 nM against JAK2 and 14 nM at JAK1.

On to `N#CCC1(n2cc(C(N)=O)c(Nc3ccccc3)n2)CCN(CC2CCCCC2)CC1` [Example 21-9, 1-[4-(cyanomethyl)-1-(cyclohexylmethyl)piperidin-4-yl]-3-(phenylamino)-1H-pyrazole-4-carboxamide], for which the figures for the IC50 against JAK2 and on JAK1 were 319 nM and 15 nM, respectively.

For `N#CCC1(n2cc(C(N)=O)c(Nc3ccnc(F)c3)n2)CCN(Cc2ccco2)CC1` [Example 22-19, 1-[4-(cyanomethyl)-1-(furan-2-ylmethyl)piperidin-4-yl]-3-[(2-fluoropyridin-4-yl)amino]-1H-pyrazole-4-carboxamide], the IC50 on JAK2 turned out to be 25 nM; at JAK1, 0.7 nM.

As for `CC(C)(C)OC(=O)NC1CCC(CC#N)(n2cc(C(N)=O)c(Nc3ccccc3)n2)CC1` (single isomer, unassigned) [Example 2-19, (1s,3s or 1r,3r) tert-butyl {4-[4-carbamoyl-3-(phenylamino)-1H-pyrazol-1-yl]-4-(cyanomethyl)cyclohexyl}carbamate], the figures for the IC50 at JAK2 and at JAK1 were 267 nM and 12 nM, respectively.

Consider `N#CCC1(n2cc(C(N)=O)c(Nc3ccc(S(=O)(=O)C(F)F)cc3)n2)CCC(Nc2ccccc2)CC1` (stereo not drawn) [Example 40-88, Cis or trans 1-[1-(cyanomethyl)-4-(phenylamino)cyclohexyl]-3-({4-[(difluoromethyl)sulfonyl]phenyl}amino)-1H-pyrazole-4-carboxamide], for which the IC50 against JAK2 was above 1500 nM; on JAK1, 200 nM.

Take `COc1cc(N2CCC(CC#N)(n3cc(C(N)=O)c(Nc4ccc(F)cc4)n3)CC2)ccn1` [Example 3-6, 1-[4-(cyanomethyl)-1-(2-methoxypyridin-4-yl)piperidin-4-yl]-3-[(4-fluorophenyl)amino]-1H-pyrazole-4-carboxamide]: the values for the half-inhibitory concentration (IC50) on JAK2 and on JAK1 were 5 nM and 0.2 nM, respectively.

With `COc1cccnc1N1CCC(CC#N)(n2cc(C(N)=O)c(Nc3ccc(F)cc3)n2)CC1` [Example 3-23, 1-[4-(cyanomethyl)-1-(3-methoxypyridin-2-yl)piperidin-4-yl]-3-[(4-fluorophenyl)amino]-1H-pyrazole-4-carboxamide], the IC50 at JAK2 was determined as 559 nM; on JAK1, 33 nM.

In the case of `N#CCC1(n2cc(C(N)=O)c(Nc3ccnc(F)c3)n2)CCC(Nc2ccc(F)cc2)CC1` (stereo not drawn) [Example 40-40, Cis or trans 1-{1-(cyanomethyl)-4-[(4-fluorophenyl)amino]cyclohexyl}-3-[(2-fluoropyridin-4-yl)amino]-1H-pyrazole-4-carboxamide], the IC50 at JAK2 stood at 9 nM; at JAK1, 0.2 nM.

In the case of `CC(C)(C)OC(=O)N1CCC(CC#N)(n2cc(C(N)=O)c(Nc3ccc(C(=O)N4CCOCC4)c(F)c3)n2)CC1` [Example 9-24, tert-butyl 4-(4-carbamoyl-3-{[3-fluoro-4-(morpholin-4-ylcarbonyl)phenyl]amino}-1H-pyrazol-1-yl)-4-(cyanomethyl)piperidine-1-carboxylate], the IC50 against JAK2 worked out at 0.7 nM; at JAK1, 0.2 nM.

For the compound `COCCOC(=O)N1CCC(CC#N)(n2cc(C(N)=O)c(Nc3ccc(S(=O)(=O)C(F)(F)F)cc3)n2)CC1` [Example 27-2, 2-methoxyethyl 4-(4-carbamoyl-3-(4-(trifluoromethylsulfonyl)phenylamino)-1H-pyrazol-1-yl)-4-(cyanomethyl)piperidine-1-carboxylate], the IC50 came out at 6 nM on JAK2 and 0.3 nM at JAK1.

Take `COc1ccc2cc(CN3CCC(CC#N)(n4cc(C(N)=O)c(Nc5ccccc5)n4)CC3)ccc2c1` [Example 21-13, 1-{4-(cyanomethyl)-1-[(6-methoxynaphthalen-2-yl)methyl]piperidin-4-yl}-3-(phenylamino)-1H-pyrazole-4-carboxamide]: the IC50 against JAK2 worked out at 297 nM; on JAK1 it was 24 nM.

(Values after patent publication US9328099B2, “Cyanomethylpyrazole carboxamides as janus kinase inhibitors” (Merck Sharp & Dohme Corp., priority 2011, dated 2016).)
